Drawing on ChEMBL document CHEMBL2074295, “Molecular identification of the corticosterone-sensitive extraneuronal catecholamine transporter” (Nat Neurosci, 1998), this text covers Activity, Ki and Km for seven molecules.

Assay type in all cases: functional, cell-based
The target in series [1] is T1, Solute carrier family 22 member 3 (Homo sapiens, UniProt O75751).
T1 sequence (O75751 whole entry): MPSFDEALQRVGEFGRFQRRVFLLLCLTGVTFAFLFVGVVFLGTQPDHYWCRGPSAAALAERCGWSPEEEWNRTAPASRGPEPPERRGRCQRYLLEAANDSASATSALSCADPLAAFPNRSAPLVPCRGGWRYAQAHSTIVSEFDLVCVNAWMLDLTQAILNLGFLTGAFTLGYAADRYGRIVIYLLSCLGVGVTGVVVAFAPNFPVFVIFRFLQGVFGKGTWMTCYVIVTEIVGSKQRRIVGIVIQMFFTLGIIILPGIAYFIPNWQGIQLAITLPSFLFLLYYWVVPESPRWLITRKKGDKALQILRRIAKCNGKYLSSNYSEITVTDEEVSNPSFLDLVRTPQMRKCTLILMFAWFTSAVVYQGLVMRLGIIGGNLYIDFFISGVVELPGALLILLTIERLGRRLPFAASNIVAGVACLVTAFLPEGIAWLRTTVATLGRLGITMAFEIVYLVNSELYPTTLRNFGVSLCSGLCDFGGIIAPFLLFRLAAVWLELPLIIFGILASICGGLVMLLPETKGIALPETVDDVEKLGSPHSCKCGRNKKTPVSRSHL
In words: (§1) TP_TRANSPORTER: uptake in OCT3-expressing HEK293 cells.

The target of series [2] is T1, Solute carrier family 22 member 3. In words: TP_TRANSPORTER: inhibition of MPP+ uptake in OCT3-expressing HEK293 cells.
Substrate in series [3]: NC[C@H](O)c1ccc(O)c(O)c1
Described as §1.

Regarding `C[n+]1ccc(-c2ccccc2)cc1`, the Activity entry in series [1] was “substrate [+]”.

`Nc1ncnc2c1ncn2CCOCP(=O)(O)O` [ADEFOVIR]: in series [1], the Activity result was “substrate [+]”.

In general, Ki refers to the dissociation constant of the complex between target and ligand, obtained from inhibition or displacement. The low end stands for higher affinity, the high end for lower affinity. For the molecule `COc1cc2c(c(OC)c1OC)-c1ccc(OC)c(=O)cc1[C@@H](NC(C)=O)CC2` [COLCHICINE], the Ki in series [2] came out at 0.12 µM.

Consider `CC(C)N1/C(=C\c2cc[n+](C(C)C)c3ccccc23)C=Cc2ccccc21` [DISPROCYNIUM24], for which affinity in series [2] was put at a Ki of 0.015 µM.

In the case of `NCCc1c[nH]c2ccc(O)cc12` [SEROTONIN], the Activity result in series [1] is “substrate [+]”.

As for `NCCc1ccc(O)cc1` [TYRAMINE], the Activity entry in series [1] was “substrate [+]”.

B1: Solute carrier family 22 member 3 (Homo sapiens) (protein)
chain: T1 sequence (O75751 whole entry)
As a reminder, the Km is the concentration of substrate that gives half-maximal velocity. For B1, in series [3], the Km amounted to 510 µM.
